Measured values reported in US12018059B2, “Human amylin analog polypeptides and methods of use” (Intarcia Therapeutics, Inc., priority 2018, dated 2024).
Starred links: 1 amine or outer side, 2 acyl side, 3 side chain; linkers in the order of their positions; H or OH if unused. Positions of bridges follow the written chain, without caps; N, C: chain ends. Non-standard residues stand in square brackets, D forms with d. Residues, ends and D or L forms follow the SMILES beside them. Groups on a side chain read outwards from the residue. *: point of attachment. C20 diacid = O=C(O)CCCCCCCCCCCCCCCCCCC(=O)*; C18 diacid = O=C(O)CCCCCCCCCCCCCCCCC(=O)*; γGlu = O=C(O)[C@H](CCC(=O)[*:2])N[*:1]; C12 diacid = O=C(O)CCCCCCCCCCC(=O)*; Palmitoyl = CCCCCCCCCCCCCCCC(=O)*

Assay: in vivo
Design: species or system Sprague-Dawley rats
Conditions: rat, iv, 0.033 mg/kg
Method: Peptides were dissolved in sterile saline and administered as a 1-hour intravenous infusion to non-fasted male Sprague-Dawley rats (n=3 per group) via femoral vein cannula at a final dose of 0.033 mg/kg. […] Blood samples (approximately 250 μL) were collected for pharmacokinetic analysis via a jugular vein cannula at 0.25, 0.5, 0.75, 1, 1.17, 1.33, 1.5, 2, 4, 6, 8, 24, 30 and 48 hr post-start of infusion into microtainer tubes containing K2EDTA as anticoagulant and 25 μL of a protease inhibitor cocktail. Plasma was prepared by centrifugation and stored at −80° C. until analysis. The results of this analysis are shown in Table 9 and few exemplars in FIGS. 3a-3b. […]
A 60 μL aliquot of each plasma sample was placed into to a 96-well plate. To each well was added 6 μL of 0.5% Tween-20. Plates were then vortexed mixed for 10 minutes at 1200 rpm before 180 μL of 0.1% TFA in 2:1 ethanol:acetonitrile containing an appropriate internal standard was added to each well. Plates were vortex mixed for 5 min at 1300 rpm, and then centrifuged for 10 min at 2844×g. Supernatants (180 μL) were placed into a clean 96-well plate and evaporated under a nitrogen stream at 45° C. Residues were reconstituted in 80 μL of 20% acetonitrile (aq) containing 0.1% formic acid.
A […] aliquot of each plasma sample was diluted with […] of 10 mM ammonium acetate (pH 6.8) containing an appropriate internal standard and loaded onto an Oasis WCX microElution plate (Waters Corporation, Milford, MA) that had been pre-conditioned with […] of methanol and […] of deionized water. Samples were washed with […] of 5% ammonium hydroxide (aq) followed by […] of 20% acetonitrile in water. The analyte was eluted with […] of 5% formic acid in 75:25 acetonitrile:water. The eluent was dried under a nitrogen stream. Residues were reconstituted in 80 μL of 20% acetonitrile (aq) containing 0.1% formic acid.
All calibration standards were prepared in control rat plasma containing K2EDTA and protease inhibitor cocktail.
Samples and standards were analyzed by TurbolonSpray™ UPLC-MS/MS using a system consisting of a CTC HTS PAL auto-injector (Leap, Carrboro, NC), an Agilent Infinity 1290 system with column oven (Palo Alto, CA), a Valco switching valve (Houston, TX), and either an AB Sciex API 5600 TripleTOF™ or Sciex API 4000QTrap mass spectrometer (Framingham, MA). Samples were injected onto a 2.1×50 mm reverse phase C18 analytical column, typically a Waters CORTECS UPLC C18+, 1.6 μm (Waters Corporation, Milford, MA) or similar. […] Initial conditions consisted of 90% A and 10% B. The organic component was increased to 95% B over a period of 3-4 minutes, depending on the peptide. Typical flow rates were 600 μL/min. The column temperature was held constant at 40 or 50° C. Peptides were quantified by monitoring one or more product ions produced from a multiply charged parent ion.

SMILES	Vd [L/kg]	clearance [mL/min/kg]	half-life [h]
CC[C@H](C)[C@H](NC(=O)[C@@H]1CCCN1C(=O)CNC(=O)[C@H](Cc1ccccc1)NC(=O)[C@H](CC(N)=O)NC(=O)[C@H](CC(N)=O)NC(=O)[C@H](CO)NC(=O)[C@H](CO)NC(=O)[C@H](CCCCN)NC(=O)[C@H](Cc1c[nH]cn1)NC(=O)[C@H](CC(C)C)NC(=O)[C@H](CCCCNC(=O)CC[C@H](NC(=O)CC[C@H](NC(=O)CCCCCCCCCCCCCCCCC(=O)O)C(=O)O)C(=O)O)NC(=O)[C@H](CC(N)=O)NC(=O)[C@H](C)NC(=O)[C@H](CC(C)C)NC(=O)[C@H](CCCNC(=N)N)NC(=O)[C@H](CCC(N)=O)NC(=O)[C@@H](NC(=O)[C@H](C)NC(=O)[C@@H]1CSSC[C@H](NC(=O)[C@@H](N)CO)C(=O)N[C@@H](CC(N)=O)C(=O)N[C@@H]([C@@H](C)O)C(=O)N[C@@H](CO)C(=O)N[C@@H]([C@@H](C)O)C(=O)N1)[C@@H](C)O)C(=O)N[C@@H](CC(C)C)C(=O)N1CCC[C@H]1C(=O)N1CCC[C@H]1C(=O)N[C@H](C(=O)N[C@@H](CCCCN)C(=O)N[C@H](C(=O)NCC(=O)N[C@@H](CO)C(=O)N[C@@H](CCC(=O)O)C(=O)N[C@H](C(=O)N[C@@H](Cc1ccc(O)cc1)C(N)=O)[C@@H](C)O)C(C)C)[C@@H](C)O [Compound A87] (H-SCNTSTCATQRLANK([γGlu-γGlu-C18 diacid])LHKSSNNFGPILPPTKVGSETY-NH2; disulfide 2-7)	0.143	0.108	17.7
CC[C@H](C)[C@H](NC(=O)[C@@H]1CCCN1C(=O)CNC(=O)[C@H](Cc1ccccc1)NC(=O)[C@H](CC(N)=O)NC(=O)[C@H](CC(N)=O)NC(=O)[C@H](CO)NC(=O)[C@H](CO)NC(=O)[C@H](CCCCN)NC(=O)[C@H](Cc1c[nH]cn1)NC(=O)[C@H](CCCCNC(=O)CCCCCCCCCCC(=O)O)NC(=O)[C@H](CCC(=O)O)NC(=O)[C@H](CC(N)=O)NC(=O)[C@H](C)NC(=O)[C@H](CC(C)C)NC(=O)[C@H](CCCNC(=N)N)NC(=O)[C@H](CCC(N)=O)NC(=O)[C@@H](NC(=O)[C@H](C)NC(=O)[C@@H]1CSSC[C@H](NC(=O)[C@@H](N)CO)C(=O)N[C@@H](CC(N)=O)C(=O)N[C@@H]([C@@H](C)O)C(=O)N[C@@H](CO)C(=O)N[C@@H]([C@@H](C)O)C(=O)N1)[C@@H](C)O)C(=O)N[C@@H](CC(C)C)C(=O)N1CCC[C@H]1C(=O)N1CCC[C@H]1C(=O)N[C@H](C(=O)N[C@@H](CCCCN)C(=O)N[C@H](C(=O)NCC(=O)N[C@@H](CO)C(=O)N[C@@H](CCC(=O)O)C(=O)N[C@H](C(=O)N[C@@H](Cc1ccc(O)cc1)C(N)=O)[C@@H](C)O)C(C)C)[C@@H](C)O [Compound A74] (H-SCNTSTCATQRLANEK(C12 diacid)HKSSNNFGPILPPTKVGSETY-NH2; disulfide 2-7)	0.331	12.2	0.331
CC[C@H](C)[C@H](NC(=O)[C@@H]1CCCN1C(=O)CNC(=O)[C@H](Cc1ccccc1)NC(=O)[C@H](CC(N)=O)NC(=O)[C@H](CC(N)=O)NC(=O)[C@H](CO)NC(=O)[C@H](CO)NC(=O)[C@H](CCCCN)NC(=O)[C@H](Cc1c[nH]cn1)NC(=O)[C@H](CC(C)C)NC(=O)[C@@H](CCCCNC(=O)CC[C@H](NC(=O)CC[C@H](NC(=O)CCCCCCCCCCCCCCCCCCC(=O)O)C(=O)O)C(=O)O)NC(=O)[C@H](CC(N)=O)NC(=O)[C@H](C)NC(=O)[C@H](CC(C)C)NC(=O)[C@H](CCCNC(=N)N)NC(=O)[C@H](CCC(N)=O)NC(=O)[C@@H](NC(=O)[C@H](C)NC(=O)[C@@H]1CSSC[C@H](NC(=O)[C@@H](N)CO)C(=O)N[C@@H](CC(N)=O)C(=O)N[C@@H]([C@@H](C)O)C(=O)N[C@@H](CO)C(=O)N[C@@H]([C@@H](C)O)C(=O)N1)[C@@H](C)O)C(=O)N[C@@H](CC(C)C)C(=O)N1CCC[C@H]1C(=O)N1CCC[C@H]1C(=O)N[C@H](C(=O)N[C@@H](CCCCN)C(=O)N[C@H](C(=O)NCC(=O)N[C@@H](CO)C(=O)N[C@@H](CCC(=O)O)C(=O)N[C@H](C(=O)N[C@@H](Cc1ccc(O)cc1)C(N)=O)[C@@H](C)O)C(C)C)[C@@H](C)O [Compound A97] (H-SCNTSTCATQRLAN[dK]([γGlu-γGlu-C20 diacid])LHKSSNNFGPILPPTKVGSETY-NH2; disulfide 2-7)	0.0995	0.0604	21
CCCCCCCCCCCCCCCC(=O)N[C@@H](CCC(=O)NCCCC[C@H](NC(=O)[C@H](CC(N)=O)NC(=O)[C@H](C)NC(=O)[C@H](CC(C)C)NC(=O)[C@H](CCCNC(=N)N)NC(=O)[C@H](CCC(N)=O)NC(=O)[C@@H](NC(=O)[C@H](C)NC(=O)[C@@H]1CSSC[C@H](NC(=O)[C@@H](N)CO)C(=O)N[C@@H](CC(N)=O)C(=O)N[C@@H]([C@@H](C)O)C(=O)N[C@@H](CO)C(=O)N[C@@H]([C@@H](C)O)C(=O)N1)[C@@H](C)O)C(=O)N[C@@H](CC(C)C)C(=O)N[C@@H](Cc1c[nH]cn1)C(=O)N[C@@H](CCCCN)C(=O)N[C@@H](CO)C(=O)N[C@@H](CO)C(=O)N[C@@H](CC(N)=O)C(=O)N[C@@H](CC(N)=O)C(=O)N[C@@H](Cc1ccccc1)C(=O)NCC(=O)N1CCC[C@H]1C(=O)N[C@H](C(=O)N[C@@H](CC(C)C)C(=O)N1CCC[C@H]1C(=O)N1CCC[C@H]1C(=O)N[C@H](C(=O)N[C@@H](CCCCN)C(=O)N[C@H](C(=O)NCC(=O)N[C@@H](CO)C(=O)N[C@@H](CCC(=O)O)C(=O)N[C@H](C(=O)N[C@@H](Cc1ccc(O)cc1)C(N)=O)[C@@H](C)O)C(C)C)[C@@H](C)O)[C@@H](C)CC)C(=O)O [Compound A42] (H-SCNTSTCATQRLANK([γGlu-Palmitoyl])LHKSSNNFGPILPPTKVGSETY-NH2; disulfide 2-7)	0.552	23.7	0.391

Further lines, results first:

Vd [L/kg]	clearance [mL/min/kg]	half-life [h]	SMILES
0.146	0.58	3.2	CCCCCCCCCCCCCCCC(=O)N[C@@H](CCC(=O)N[C@@H](CCC(=O)NCCCC[C@H](NC(=O)[C@H](CCC(=O)O)NC(=O)[C@H](CC(N)=O)NC(=O)[C@H](C)NC(=O)[C@H](CC(C)C)NC(=O)[C@H](CCCNC(=N)N)NC(=O)[C@H](CCC(N)=O)NC(=O)[C@@H](NC(=O)[C@H](C)NC(=O)[C@@H]1CSSC[C@H](NC(=O)[C@@H](N)CO)C(=O)N[C@@H](CC(N)=O)C(=O)N[C@@H]([C@@H](C)O)C(=O)N[C@@H](CO)C(=O)N[C@@H]([C@@H](C)O)C(=O)N1)[C@@H](C)O)C(=O)N[C@@H](Cc1c[nH]cn1)C(=O)N[C@@H](CCCCN)C(=O)N[C@@H](CO)C(=O)N[C@@H](CO)C(=O)N[C@@H](CC(N)=O)C(=O)N[C@@H](CC(N)=O)C(=O)N[C@@H](Cc1ccccc1)C(=O)NCC(=O)N1CCC[C@H]1C(=O)N[C@H](C(=O)N[C@@H](CC(C)C)C(=O)N1CCC[C@H]1C(=O)N1CCC[C@H]1C(=O)N[C@H](C(=O)N[C@@H](CCCCN)C(=O)N[C@H](C(=O)NCC(=O)N[C@@H](CO)C(=O)N[C@@H](CCC(=O)O)C(=O)N[C@H](C(=O)N[C@@H](Cc1ccc(O)cc1)C(N)=O)[C@@H](C)O)C(C)C)[C@@H](C)O)[C@@H](C)CC)C(=O)O)C(=O)O [Compound A123] (H-SCNTSTCATQRLANEK([γGlu-γGlu-Palmitoyl])HKSSNNFGPILPPTKVGSETY-NH2; disulfide 2-7)
0.137	0.108	16.6	CC[C@H](C)[C@H](NC(=O)[C@@H]1CCCN1C(=O)CNC(=O)[C@H](Cc1ccccc1)NC(=O)[C@H](CC(N)=O)NC(=O)[C@H](CC(N)=O)NC(=O)[C@H](CO)NC(=O)[C@H](CO)NC(=O)[C@H](CCCCN)NC(=O)[C@H](Cc1c[nH]cn1)NC(=O)[C@@H](CCCCNC(=O)CC[C@H](NC(=O)CC[C@H](NC(=O)CC[C@H](NC(=O)CCCCCCCCCCCCCCCCC(=O)O)C(=O)O)C(=O)O)C(=O)O)NC(=O)[C@H](CCC(=O)O)NC(=O)[C@H](CC(N)=O)NC(=O)[C@H](C)NC(=O)[C@H](CC(C)C)NC(=O)[C@H](CCCNC(=N)N)NC(=O)[C@H](CCC(N)=O)NC(=O)[C@@H](NC(=O)[C@H](C)NC(=O)[C@@H]1CSSC[C@H](NC(=O)[C@@H](N)CO)C(=O)N[C@@H](CC(N)=O)C(=O)N[C@@H]([C@@H](C)O)C(=O)N[C@@H](CO)C(=O)N[C@@H]([C@@H](C)O)C(=O)N1)[C@@H](C)O)C(=O)N[C@@H](CC(C)C)C(=O)N1CCC[C@H]1C(=O)N1CCC[C@H]1C(=O)N[C@H](C(=O)N[C@@H](CCCCN)C(=O)N[C@H](C(=O)NCC(=O)N[C@@H](CO)C(=O)N[C@@H](CCC(=O)O)C(=O)N[C@H](C(=O)N[C@@H](Cc1ccc(O)cc1)C(N)=O)[C@@H](C)O)C(C)C)[C@@H](C)O [Compound A104] (H-SCNTSTCATQRLANE[dK]([γGlu-γGlu-γGlu-C18 diacid])HKSSNNFGPILPPTKVGSETY-NH2; disulfide 2-7)
